# Measured values reported in the supplement of paper PMC4862054.
# System: DU-4475
# Assay: normalised response (% of control), CellTiter-Glo; higher = more viable cells (100 = DMSO, 0 = benzethonium chloride kill control)
# Conditions: incubation time: 72 h
# Procedure: (§1)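 DSRT, 72 h incubation, CellTox Green / CellTiter-Glo readout. Signal is normalised to DMSO and benzethonium chloride controls. Value is the normalised response at dose 3.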
row,SMILES,normalised response [%]
1,COC(=O)c1ccc2c(c1)NC(=O)/C2=C(\Nc1ccc(N(C)C(=O)CN2CCN(C)CC2)cc1)c1ccccc1 [Nintedanib] (100 nM),100
2,S=P(N1CC1)(N1CC1)N1CC1 [Thio-TEPA] (500 nM),104
3,CN(C)CCOc1ccc(/C(=C(/CCCl)c2ccccc2)c2ccccc2)cc1 [Toremifene] (100 nM),104

# System: MDA-MB-231
# Assay: as above
# Conditions: incubation time: 72 h
# Procedure: as §1
row,SMILES,normalised response [%]
1,N#Cc1ccc(COC[C@H]2O[C@@H](n3c(NCc4ccc(Cl)c(Cl)c4)nc4c(N)ncnc43)[C@H](O)[C@@H]2O)cc1 (100 nM),111
2,COc1cc(O)c2c(c1)/C=C/C[C@H](O)[C@H](O)C(=O)/C=C\C[C@H](C)OC2=O [(5Z)-7-Oxozeaenol] (100 nM),104
3,COc1cc(OC2CCN(C)CC2)ccc1Nc1ncc2c(n1)n(C1CCCC1)c(=O)n2C [AZ 3146] (100 nM),99.1
4,CNC(=O)c1cccc(-c2ccc3c(N4CCOC[C@@H]4C)nc(N4CCOC[C@@H]4C)nc3n2)c1 [AZD2014] (100 nM),86.9
5,O=C(/C=C/c1cccc(S(=O)(=O)Nc2ccccc2)c1)NO [Belinostat] (100 nM),85.5
6,Cc1ccc(NC(=O)c2ccc(CN3CCN(C)CC3)cc2)cc1Nc1nc(-c2cccnc2)cs1 [Masitinib] (100 nM),111
7,COC(=O)c1ccc2c(c1)NC(=O)/C2=C(\Nc1ccc(N(C)C(=O)CN2CCN(C)CC2)cc1)c1ccccc1 [Nintedanib] (100 nM),105
8,S=P(N1CC1)(N1CC1)N1CC1 [Thio-TEPA] (500 nM),98.8
9,CN(C)CCOc1ccc(/C(=C(/CCCl)c2ccccc2)c2ccccc2)cc1 [Toremifene] (100 nM),105

# System: Hs578T
# Assay: normalised response (% of control), CellTox Green; higher = less cell death (100 = DMSO, 0 = benzethonium chloride kill control)
# Conditions: incubation time: 72 h
# Outline: (§2)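 CellTox Green fluorescence (485/520 nm) and, after 10 min at room temperature, CellTiter-Glo luminescence were read from breast cancer cell lines incubated 72 h in 384-well plates. Cells were seeded as 20 µl suspension onto compound at 5 concentrations in 10-fold steps over a 10,000-fold range chosen per compound. Each plate was normalised to 0.1 % DMSO (100) and a positive kill control (0). Values are normalised signals, one per concentration.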
row,SMILES,normalised response [%]
1,N#Cc1ccc(COC[C@H]2O[C@@H](n3c(NCc4ccc(Cl)c(Cl)c4)nc4c(N)ncnc43)[C@H](O)[C@@H]2O)cc1 (100 nM),114
2,COc1cc(O)c2c(c1)/C=C/C[C@H](O)[C@H](O)C(=O)/C=C\C[C@H](C)OC2=O [(5Z)-7-Oxozeaenol] (100 nM),79.4
3,COc1cc(OC2CCN(C)CC2)ccc1Nc1ncc2c(n1)n(C1CCCC1)c(=O)n2C [AZ 3146] (100 nM),99.1
4,CNC(=O)c1cccc(-c2ccc3c(N4CCOC[C@@H]4C)nc(N4CCOC[C@@H]4C)nc3n2)c1 [AZD2014] (100 nM),107
5,O=C(/C=C/c1cccc(S(=O)(=O)Nc2ccccc2)c1)NO [Belinostat] (100 nM),103
6,Cc1ccc(NC(=O)c2ccc(CN3CCN(C)CC3)cc2)cc1Nc1nc(-c2cccnc2)cs1 [Masitinib] (100 nM),106
7,S=P(N1CC1)(N1CC1)N1CC1 [Thio-TEPA] (500 nM),88.8
8,CN(C)CCOc1ccc(/C(=C(/CCCl)c2ccccc2)c2ccccc2)cc1 [Toremifene] (100 nM),99.7

# System: MDA-MB-468
# Assay: as above
# Conditions: incubation time: 72 h
# Outline: as §2
row,SMILES,normalised response [%]
1,N#Cc1ccc(COC[C@H]2O[C@@H](n3c(NCc4ccc(Cl)c(Cl)c4)nc4c(N)ncnc43)[C@H](O)[C@@H]2O)cc1 (100 nM),130
2,COc1cc(O)c2c(c1)/C=C/C[C@H](O)[C@H](O)C(=O)/C=C\C[C@H](C)OC2=O [(5Z)-7-Oxozeaenol] (100 nM),107
3,O=C(/C=C/c1cccc(S(=O)(=O)Nc2ccccc2)c1)NO [Belinostat] (100 nM),131
4,Cc1ccc(NC(=O)c2ccc(CN3CCN(C)CC3)cc2)cc1Nc1nc(-c2cccnc2)cs1 [Masitinib] (100 nM),116
5,COC(=O)c1ccc2c(c1)NC(=O)/C2=C(\Nc1ccc(N(C)C(=O)CN2CCN(C)CC2)cc1)c1ccccc1 [Nintedanib] (100 nM),82.3
6,S=P(N1CC1)(N1CC1)N1CC1 [Thio-TEPA] (500 nM),69
7,CN(C)CCOc1ccc(/C(=C(/CCCl)c2ccccc2)c2ccccc2)cc1 [Toremifene] (100 nM),127

# System: HCC1143
# Assay: as above
# Conditions: incubation time: 72 h
# Outline: as §2
row,SMILES,normalised response [%]
1,N#Cc1ccc(COC[C@H]2O[C@@H](n3c(NCc4ccc(Cl)c(Cl)c4)nc4c(N)ncnc43)[C@H](O)[C@@H]2O)cc1 (100 nM),108
2,COc1cc(O)c2c(c1)/C=C/C[C@H](O)[C@H](O)C(=O)/C=C\C[C@H](C)OC2=O [(5Z)-7-Oxozeaenol] (100 nM),89.1
3,COc1cc(OC2CCN(C)CC2)ccc1Nc1ncc2c(n1)n(C1CCCC1)c(=O)n2C [AZ 3146] (100 nM),96.7
4,CNC(=O)c1cccc(-c2ccc3c(N4CCOC[C@@H]4C)nc(N4CCOC[C@@H]4C)nc3n2)c1 [AZD2014] (100 nM),105
5,O=C(/C=C/c1cccc(S(=O)(=O)Nc2ccccc2)c1)NO [Belinostat] (100 nM),95.4
6,Cc1ccc(NC(=O)c2ccc(CN3CCN(C)CC3)cc2)cc1Nc1nc(-c2cccnc2)cs1 [Masitinib] (100 nM),105
7,COC(=O)c1ccc2c(c1)NC(=O)/C2=C(\Nc1ccc(N(C)C(=O)CN2CCN(C)CC2)cc1)c1ccccc1 [Nintedanib] (100 nM),106
8,S=P(N1CC1)(N1CC1)N1CC1 [Thio-TEPA] (500 nM),101
9,CN(C)CCOc1ccc(/C(=C(/CCCl)c2ccccc2)c2ccccc2)cc1 [Toremifene] (100 nM),70.6

# System: CAL-148
# Assay: as above
# Conditions: incubation time: 72 h
# Outline: as §2
row,SMILES,normalised response [%]
1,N#Cc1ccc(COC[C@H]2O[C@@H](n3c(NCc4ccc(Cl)c(Cl)c4)nc4c(N)ncnc43)[C@H](O)[C@@H]2O)cc1 (100 nM),104
2,COc1cc(OC2CCN(C)CC2)ccc1Nc1ncc2c(n1)n(C1CCCC1)c(=O)n2C [AZ 3146] (100 nM),89.9
3,CNC(=O)c1cccc(-c2ccc3c(N4CCOC[C@@H]4C)nc(N4CCOC[C@@H]4C)nc3n2)c1 [AZD2014] (100 nM),83.9
4,O=C(/C=C/c1cccc(S(=O)(=O)Nc2ccccc2)c1)NO [Belinostat] (100 nM),101
5,Cc1ccc(NC(=O)c2ccc(CN3CCN(C)CC3)cc2)cc1Nc1nc(-c2cccnc2)cs1 [Masitinib] (100 nM),95.1
6,COC(=O)c1ccc2c(c1)NC(=O)/C2=C(\Nc1ccc(N(C)C(=O)CN2CCN(C)CC2)cc1)c1ccccc1 [Nintedanib] (100 nM),102
7,S=P(N1CC1)(N1CC1)N1CC1 [Thio-TEPA] (500 nM),102
8,CN(C)CCOc1ccc(/C(=C(/CCCl)c2ccccc2)c2ccccc2)cc1 [Toremifene] (100 nM),84.1

# System: CAL-85-1
# Assay: as above
# Conditions: incubation time: 72 h
# Outline: as §2
row,SMILES,normalised response [%]
1,N#Cc1ccc(COC[C@H]2O[C@@H](n3c(NCc4ccc(Cl)c(Cl)c4)nc4c(N)ncnc43)[C@H](O)[C@@H]2O)cc1 (100 nM),101
2,COc1cc(OC2CCN(C)CC2)ccc1Nc1ncc2c(n1)n(C1CCCC1)c(=O)n2C [AZ 3146] (100 nM),107
3,CNC(=O)c1cccc(-c2ccc3c(N4CCOC[C@@H]4C)nc(N4CCOC[C@@H]4C)nc3n2)c1 [AZD2014] (100 nM),104
4,O=C(/C=C/c1cccc(S(=O)(=O)Nc2ccccc2)c1)NO [Belinostat] (100 nM),94.8
5,Cc1ccc(NC(=O)c2ccc(CN3CCN(C)CC3)cc2)cc1Nc1nc(-c2cccnc2)cs1 [Masitinib] (100 nM),99.3
6,COC(=O)c1ccc2c(c1)NC(=O)/C2=C(\Nc1ccc(N(C)C(=O)CN2CCN(C)CC2)cc1)c1ccccc1 [Nintedanib] (100 nM),98.1
7,S=P(N1CC1)(N1CC1)N1CC1 [Thio-TEPA] (500 nM),107
8,CN(C)CCOc1ccc(/C(=C(/CCCl)c2ccccc2)c2ccccc2)cc1 [Toremifene] (100 nM),98.3

# System: HDQ-P1
# Assay: as above
# Conditions: incubation time: 72 h
# Outline: as §2
row,SMILES,normalised response [%]
1,N#Cc1ccc(COC[C@H]2O[C@@H](n3c(NCc4ccc(Cl)c(Cl)c4)nc4c(N)ncnc43)[C@H](O)[C@@H]2O)cc1 (100 nM),85.9
2,COc1cc(O)c2c(c1)/C=C/C[C@H](O)[C@H](O)C(=O)/C=C\C[C@H](C)OC2=O [(5Z)-7-Oxozeaenol] (100 nM),85.9
3,COc1cc(OC2CCN(C)CC2)ccc1Nc1ncc2c(n1)n(C1CCCC1)c(=O)n2C [AZ 3146] (100 nM),96.2
4,CNC(=O)c1cccc(-c2ccc3c(N4CCOC[C@@H]4C)nc(N4CCOC[C@@H]4C)nc3n2)c1 [AZD2014] (100 nM),106
5,O=C(/C=C/c1cccc(S(=O)(=O)Nc2ccccc2)c1)NO [Belinostat] (100 nM),104
6,Cc1ccc(NC(=O)c2ccc(CN3CCN(C)CC3)cc2)cc1Nc1nc(-c2cccnc2)cs1 [Masitinib] (100 nM),87.1
7,COC(=O)c1ccc2c(c1)NC(=O)/C2=C(\Nc1ccc(N(C)C(=O)CN2CCN(C)CC2)cc1)c1ccccc1 [Nintedanib] (100 nM),83.3
8,S=P(N1CC1)(N1CC1)N1CC1 [Thio-TEPA] (500 nM),92.6
9,CN(C)CCOc1ccc(/C(=C(/CCCl)c2ccccc2)c2ccccc2)cc1 [Toremifene] (100 nM),74.3

# System: HCC1937
# Assay: as above
# Conditions: incubation time: 72 h
# Outline: as §2
row,SMILES,normalised response [%]
1,N#Cc1ccc(COC[C@H]2O[C@@H](n3c(NCc4ccc(Cl)c(Cl)c4)nc4c(N)ncnc43)[C@H](O)[C@@H]2O)cc1 (100 nM),60.8
2,COc1cc(O)c2c(c1)/C=C/C[C@H](O)[C@H](O)C(=O)/C=C\C[C@H](C)OC2=O [(5Z)-7-Oxozeaenol] (100 nM),105
3,COc1cc(OC2CCN(C)CC2)ccc1Nc1ncc2c(n1)n(C1CCCC1)c(=O)n2C [AZ 3146] (100 nM),96.3
4,O=C(/C=C/c1cccc(S(=O)(=O)Nc2ccccc2)c1)NO [Belinostat] (100 nM),89.8
5,COC(=O)c1ccc2c(c1)NC(=O)/C2=C(\Nc1ccc(N(C)C(=O)CN2CCN(C)CC2)cc1)c1ccccc1 [Nintedanib] (100 nM),108

# System: MCF-10A
# Assay: as above
# Conditions: incubation time: 72 h
# Outline: as §2
row,SMILES,normalised response [%]
1,N#Cc1ccc(COC[C@H]2O[C@@H](n3c(NCc4ccc(Cl)c(Cl)c4)nc4c(N)ncnc43)[C@H](O)[C@@H]2O)cc1 (100 nM),97.2
2,CNC(=O)c1cccc(-c2ccc3c(N4CCOC[C@@H]4C)nc(N4CCOC[C@@H]4C)nc3n2)c1 [AZD2014] (100 nM),51.3
3,Cc1ccc(NC(=O)c2ccc(CN3CCN(C)CC3)cc2)cc1Nc1nc(-c2cccnc2)cs1 [Masitinib] (100 nM),68.2
4,COC(=O)c1ccc2c(c1)NC(=O)/C2=C(\Nc1ccc(N(C)C(=O)CN2CCN(C)CC2)cc1)c1ccccc1 [Nintedanib] (100 nM),102
5,CN(C)CCOc1ccc(/C(=C(/CCCl)c2ccccc2)c2ccccc2)cc1 [Toremifene] (100 nM),71.6

# System: MFM-223
# Assay: as above
# Conditions: incubation time: 72 h
# Outline: as §2
row,SMILES,normalised response [%]
1,N#Cc1ccc(COC[C@H]2O[C@@H](n3c(NCc4ccc(Cl)c(Cl)c4)nc4c(N)ncnc43)[C@H](O)[C@@H]2O)cc1 (100 nM),108
2,COc1cc(O)c2c(c1)/C=C/C[C@H](O)[C@H](O)C(=O)/C=C\C[C@H](C)OC2=O [(5Z)-7-Oxozeaenol] (100 nM),105
3,COc1cc(OC2CCN(C)CC2)ccc1Nc1ncc2c(n1)n(C1CCCC1)c(=O)n2C [AZ 3146] (100 nM),100
4,CNC(=O)c1cccc(-c2ccc3c(N4CCOC[C@@H]4C)nc(N4CCOC[C@@H]4C)nc3n2)c1 [AZD2014] (100 nM),103
5,O=C(/C=C/c1cccc(S(=O)(=O)Nc2ccccc2)c1)NO [Belinostat] (100 nM),84.1
6,Cc1ccc(NC(=O)c2ccc(CN3CCN(C)CC3)cc2)cc1Nc1nc(-c2cccnc2)cs1 [Masitinib] (100 nM),91.6
7,COC(=O)c1ccc2c(c1)NC(=O)/C2=C(\Nc1ccc(N(C)C(=O)CN2CCN(C)CC2)cc1)c1ccccc1 [Nintedanib] (100 nM),98.9
8,S=P(N1CC1)(N1CC1)N1CC1 [Thio-TEPA] (500 nM),100
9,CN(C)CCOc1ccc(/C(=C(/CCCl)c2ccccc2)c2ccccc2)cc1 [Toremifene] (100 nM),92.6
